{
  "source": "patent EP4721737A1",
  "about": "“USE OF PHARMACEUTICAL COMPOSITION COMPRISING COMPOUND HAVING BIS(AZANYLYLIDENE) SULFONYL STRUCTURE FOR TREATING ANEMIA-RELATED DISEASES” (Scinnohub Pharmaceutical Co., Ltd., priority 2023, dated 2024)",
  "key": {"[1]": {"target": "T1, PKR in ex vivo red blood cells from healthy individuals (Homo sapiens, UniProt P30613)", "T1 construct": "endogenous in cells; host or cells: human red blood cells isolated from fresh peripheral blood of healthy individuals", "T1 sequence (P30613 whole entry)": "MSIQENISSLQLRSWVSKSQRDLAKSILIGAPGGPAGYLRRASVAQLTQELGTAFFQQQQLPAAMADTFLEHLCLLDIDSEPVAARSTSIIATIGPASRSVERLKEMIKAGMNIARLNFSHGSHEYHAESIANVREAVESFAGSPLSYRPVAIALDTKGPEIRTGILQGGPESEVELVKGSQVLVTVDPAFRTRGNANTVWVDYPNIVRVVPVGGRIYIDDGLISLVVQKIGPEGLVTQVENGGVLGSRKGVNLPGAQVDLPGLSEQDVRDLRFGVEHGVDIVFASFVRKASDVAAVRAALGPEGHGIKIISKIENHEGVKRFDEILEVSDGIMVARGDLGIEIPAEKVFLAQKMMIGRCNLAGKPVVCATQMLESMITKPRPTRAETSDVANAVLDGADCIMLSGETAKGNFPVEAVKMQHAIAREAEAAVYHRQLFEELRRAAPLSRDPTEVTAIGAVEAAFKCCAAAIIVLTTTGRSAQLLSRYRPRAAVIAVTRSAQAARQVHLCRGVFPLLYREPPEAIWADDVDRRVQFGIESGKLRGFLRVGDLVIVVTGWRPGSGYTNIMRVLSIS", "assay": "ex vivo pyruvate kinase (PKR) activity experiment, red blood cells of healthy individuals", "format": "cell-based", "details": "3 hours co-cultivation", "summary_of_the_method": "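Washed, Percoll-purified human RBCs at 1 × 10^7 cells/mL were exposed to compound (final 1–3000 nM, 1% DMSO) for 3 h at 37°C, then lysed. PKR activity in lysate was followed kinetically by fluorescence at 540/590 nm over 1 h. Slope versus 1% DMSO control gave % activation; AC50 from variable-slope fit.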"}, "wild-type mice": {"tested_on": "wild-type mice", "assay": "in vivo efficacy study in wild-type mice (HGB, ATP, 2,3-DPG in whole blood)", "details": "C57BL/6J, whole blood 2-3 hours after last administration; for HGB: vehicle control 14.9; for ATP: vehicle control 452.0; for 2,3-DPG: vehicle control 1727.8", "method": "The effects of the compound on wild-type mice were evaluated by detecting the concentrations of HGB, ATP, and 2,3-DPG in the whole blood of mice.\n• i. On the day of administration, the compound was weighed, then the vehicle was added to prepare the administration solution: vehicle: 5% DMSO + 10% Solutol + 85% Saline\ni. Wild-type mice were randomly divided into groups based on body weight, with 8 mice per group.\n• i. Whole blood sample was collected 2-3 hours after the last administration of the test animal for HGB assay.\n• i. An LC-MS/MS method was established to determine the ATP and 2,3-DPG contents in whole blood sample 2-3 hours after the last administration of the test animal."}, "[2]": {"details": "2.5 mg/kg oral gavage twice a day 14 days"}, "[3]": {"details": "7.5 mg/kg oral gavage twice a day 14 days"}, "[4]": {"details": "25 mg/kg oral gavage twice a day 14 days"}, "[5]": {"details": "15 mg/kg oral gavage twice a day 14 days"}, "[6]": {"details": "50 mg/kg oral gavage twice a day 14 days"}, "[7]": {"details": "75 mg/kg oral gavage twice a day 14 days"}},
  "data": [
    {"smiles": "N#Cc1ccc(S(=O)(=O)N2CC(=C3CN(C(=O)[C@H](CO)c4ccccc4)C3)C2)cc1", "note": "[Compound 65, (S)-4-(1'-(3-hydroxy-2-phenylpropionyl)-1',4'-dihydro-2H,2'H-[3,3'-diazetidinylidene]-1(4H)-ylsulfonyl)benzonitrile]", "values": [
      {"measurement": "AC50", "setting": "[1]", "result": "< 100", "unit": "nM"},
      {"measurement": "HGB", "setting": "wild-type mice; [2]", "result": 15.1, "unit": "g/dL"},
      {"measurement": "ATP", "setting": "wild-type mice; [2]", "result": 481.5, "unit": "µg/mL"},
      {"measurement": "2,3-DPG", "setting": "wild-type mice; [2]", "result": 1417.4, "unit": "µg/mL"},
      {"measurement": "HGB", "setting": "wild-type mice; [3]", "result": 14.9, "unit": "g/dL"},
      {"measurement": "ATP", "setting": "wild-type mice; [3]", "result": 486.5, "unit": "µg/mL"},
      {"measurement": "2,3-DPG", "setting": "wild-type mice; [3]", "result": 1417.4, "unit": "µg/mL"},
      {"measurement": "HGB", "setting": "wild-type mice; [4]", "result": 14.9, "unit": "g/dL"},
      {"measurement": "ATP", "setting": "wild-type mice; [4]", "result": 475.9, "unit": "µg/mL"},
      {"measurement": "2,3-DPG", "setting": "wild-type mice; [4]", "result": 1363.0, "unit": "µg/mL"}
    ]},
    {"smiles": "O=C([C@H](CO)c1ccc(F)cc1F)N1CC(=C2CN(S(=O)(=O)c3ccccn3)C2)C1", "note": "[Compound 83, (S)-2-(2,4-difluorophenyl)-3-hydroxy-1-(1'-(pyridin-2-ylsulfonyl)-1',4'-dihydro-2H,2'H-[3,3'-diazetidinylidene]-1(4H)-yl)propan-1-one]", "values": [
      {"measurement": "HGB", "setting": "wild-type mice; [5]", "result": 15.3, "unit": "g/dL"},
      {"measurement": "ATP", "setting": "wild-type mice; [5]", "result": 476.9, "unit": "µg/mL"},
      {"measurement": "2,3-DPG", "setting": "wild-type mice; [5]", "result": 1454.1, "unit": "µg/mL"},
      {"measurement": "HGB", "setting": "wild-type mice; [6]", "result": 15.4, "unit": "g/dL"},
      {"measurement": "ATP", "setting": "wild-type mice; [6]", "result": 472.1, "unit": "µg/mL"},
      {"measurement": "2,3-DPG", "setting": "wild-type mice; [6]", "result": 1444.5, "unit": "µg/mL"},
      {"measurement": "HGB", "setting": "wild-type mice; [7]", "result": 14.6, "unit": "g/dL"},
      {"measurement": "ATP", "setting": "wild-type mice; [7]", "result": 474.1, "unit": "µg/mL"},
      {"measurement": "2,3-DPG", "setting": "wild-type mice; [7]", "result": 1441.8, "unit": "µg/mL"}
    ]}
  ]
}
